Read-outs that look alike come from different tables or passages of the source.
How the values were obtained:
[1] = molecular target: T1, murine IDO (Mus musculus, UniProt P28776); experiment: Cell based IDO/kynurenine assay in 293-T-Rex cells expressing murine IDO; details: cells expressing murine IDO, read-out: mIDO EC50
T1 construct: expressed in transfected cells; host or cells: 293-T-REx cells (Invitrogen), doxycycline-inducible CMV-tet promoter
Protocol: Transfected cells were selected in DBZ medium (DMEM, 10% FBS, 1× Penicillin+Streptomycin, 2 mM L-glutamine, 5 μg/mL blasticidin and 25 μg/ml Zeocin) at 37° C. with a 5% CO2 in air atmosphere. Individual clones were isolated by limiting dilution cloning from these populations.
The cells incubated in Neutral medium serve as negative control of the assay. The cells incubated in Induction medium and without inhibitor serve as the positive control of the assay. The incubation is carried out for 16 h at 37° C. in a cell culture incubator. 200 μL of medium are transferred to U-bottom polypropylene 96-well plates containing 25 μL of 30% TCA, incubated 30 minutes at 60° C. and centrifuged at 3400 g for 5 minutes. 150 μL of the clear supernatant is transferred to a polystyrene 96-well plate containing 50 μL of 4% (w/v) of p-dimethylaminobenzaldehyde in acetic acid, incubated for 10 min. Kynurenine concentration is determined by measuring the absorbance at 480 nm.

[2] = molecular target: purified human IDO protein (Homo sapiens, UniProt P14902); experiment: Enzymatic IDO assay (kynurenine production, absorbance 480 nm); details: enzymatic activity
[3] = molecular target: human IDO (Homo sapiens, UniProt P14902); experiment: Cell based IDO/kynurenine assay in IDO-293-T-Rex cells; details: kynurenine production, read-out: hIDO EC50
Outline: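 293-T-REx cells stably carrying doxycycline-inducible human or murine IDO were incubated with inhibitors in induction medium for 16 h at 37° C. Medium was TCA-treated at 60° C and reacted with p-dimethylaminobenzaldehyde. Kynurenine was quantified by absorbance at 480 nm.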

[4] = hIDO IC50, Table 16, recombinant human IDO
[5] = Table 16, 293T cells expressing human IDO
[6] = hIDO IC50, Table 15, recombinant human IDO
[7] = Table 15, 293T cells expressing human IDO

Chain of purified human IDO protein (P14902 whole entry P110S/E119G): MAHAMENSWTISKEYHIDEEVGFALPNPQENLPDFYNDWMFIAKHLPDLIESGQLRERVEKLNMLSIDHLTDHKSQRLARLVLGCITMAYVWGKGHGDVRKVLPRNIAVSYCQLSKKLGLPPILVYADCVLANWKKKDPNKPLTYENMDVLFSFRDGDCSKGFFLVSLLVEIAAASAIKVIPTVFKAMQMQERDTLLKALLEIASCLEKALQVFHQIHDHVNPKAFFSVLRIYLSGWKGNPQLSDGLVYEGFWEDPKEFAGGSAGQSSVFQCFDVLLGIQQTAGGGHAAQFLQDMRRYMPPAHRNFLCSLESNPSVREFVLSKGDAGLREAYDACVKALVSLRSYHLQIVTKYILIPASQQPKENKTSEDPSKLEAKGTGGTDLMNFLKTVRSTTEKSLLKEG
T1 sequence (P28776 whole entry): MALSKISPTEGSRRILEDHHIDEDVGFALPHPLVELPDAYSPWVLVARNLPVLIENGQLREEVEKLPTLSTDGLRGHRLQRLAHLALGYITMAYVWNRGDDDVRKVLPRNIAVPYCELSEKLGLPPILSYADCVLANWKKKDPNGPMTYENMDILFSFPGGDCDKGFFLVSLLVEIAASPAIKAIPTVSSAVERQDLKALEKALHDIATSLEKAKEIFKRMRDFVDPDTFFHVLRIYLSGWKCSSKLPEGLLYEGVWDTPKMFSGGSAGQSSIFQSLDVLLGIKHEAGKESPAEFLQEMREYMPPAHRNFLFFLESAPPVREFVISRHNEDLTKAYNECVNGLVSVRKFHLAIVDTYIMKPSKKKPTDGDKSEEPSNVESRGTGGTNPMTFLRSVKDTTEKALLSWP
Chain of human IDO (P14902 whole entry): as the sequence (P14902 whole entry P110S/E119G) above, with S110P, G119E counted along it

| Structure (SMILES) | EC50 ([1]; Table 16) [µM] | IC50 [2, 4] [µM] | EC50 [3, 5] [µM] | EC50 ([1]; Table 15) [µM] | IC50 [2, 6] [µM] | EC50 [3, 7] [µM] | IC50 ([2]; hIDO IC50, recombinant human IDO, values reported in ranges) [µM] | EC50 ([3]; 293T cell line stably expressing human IDO, values reported in ranges) [µM] |
| --- | --- | --- | --- | --- | --- | --- | --- | --- |
| NOCCOc1ccccc1 [compound 1679, O-(2-phenoxyethyl)hydroxylamine] | < 10 | < 10 | < 10 |  |  |  |  |  |
| NOCc1cc(Cl)ccc1-c1ccc(Cl)cc1 [compound 1892, O-((4,4′-dichlorobiphenyl-2-yl)methyl)hydroxylamine] |  |  |  | < 10 | < 10 | < 10 |  |  |
| COc1ccccc1CON [compound 1678, O-(2-methoxybenzyl)hydroxylamine] | 10 to 100 | 10 to 100 | < 10 |  |  |  |  |  |
| NOCc1cc(Cl)ccc1-c1ccc(Cl)c(Cl)c1 [compound 1919, O-((3′,4,4′-trichlorobiphenyl-2-yl)methyl)hydroxylamine] |  |  |  | 10 to 100 | < 10 | < 10 |  |  |
| NOCc1ccccc1[N+](=O)[O-] [compound 811, O-(2-nitrobenzyl)hydroxylamine] | 10 to 100 | < 10 | < 10 |  |  |  |  |  |
| CNC(=O)C(ON)c1ccccc1 (centres unmarked) [compound 1897, 2-(aminooxy)-N-methyl-2-phenylacetamide] |  |  |  | < 10 | < 10 | < 10 |  |  |
| COc1ccc(-c2ccc(Cl)cc2CON)cc1 [compound 1914, O-((4-chloro-4′-methoxybiphenyl-2-yl)methyl)hydroxylamine] |  |  |  | 10 to 100 | < 10 | < 10 |  |  |
| COc1ccc(-c2cccc(CON)c2)cc1 [compound 1882, O-((4′-methoxybiphenyl-3-yl)methyl)hydroxylamine] |  |  |  | 10 to 100 | < 10 | < 10 |  |  |
| NOCc1cc(Cl)ccc1-c1cncnc1 [compound 1923, O-(5-chloro-2-(pyrimidin-5-yl)benzyl)hydroxylamine] |  |  |  | < 10 | < 10 | < 10 |  |  |
| NOCc1cccc2ccccc12 [compound 1767, O-(naphthalen-1-ylmethyl)hydroxylamine] | 10 to 100 | < 10 | < 10 |  |  |  |  |  |
| NOCc1nc2ccccc2s1 [compound 1749, O-(benzo[d]thiazol-2-ylmethyl)hydroxylamine] |  |  |  | < 10 | < 10 | < 10 |  |  |
| NOCc1ccccc1-c1ccc(Cl)cc1 [compound 1879, O-((4′-chlorobiphenyl-2-yl)methyl)hydroxylamine] |  |  |  | 10 to 100 | < 10 | < 10 |  |  |
| NOCCCc1ccccc1 [compound 1693, O-(3-phenylpropyl)hydroxylamine] | 10 to 100 | 10 to 100 | < 10 |  |  |  |  |  |
| NOCc1cccc(NCc2ccccc2)c1 [compound 1872, 3-(aminooxymethyl)-N-benzylaniline] |  |  |  | < 10 | < 10 | < 10 |  |  |
| NOCc1cccc(NCc2ccccc2)c1 [compound 1828, 3-(aminooxymethyl)-N-benzylaniline] |  |  |  | 100 to 1000 | 100 to 1000 | 10 to 100 |  |  |
| NOCc1ccccc1Br [compound 1675, O-(2-bromobenzyl)hydroxylamine] | < 10 | < 10 | < 10 |  |  |  |  |  |
| NOCc1cc(Cl)ccc1-c1cccc(Cl)c1 [compound 1918, O-((3′,4-dichlorobiphenyl-2-yl)methyl)hydroxylamine] |  |  |  | 10 to 100 | < 10 | < 10 |  |  |
| NOC(c1ccccc1)c1ccccc1 [compound 1922, O-benzhydrylhydroxylamine] | < 10 | < 10 | < 10 |  |  |  |  |  |
| NOCc1ccccc1-c1ccccc1 [compound 1827, O-(biphenyl-2-ylmethyl)hydroxylamine] |  |  |  | 10 to 100 | < 10 | < 10 |  |  |
| NOC1CCCc2ccccc21 (centres unmarked) [compound 1895, O-(1,2,3,4-tetrahydronaphthalen-1-yl)hydroxylamine] |  |  |  | 10 to 100 | < 10 | < 10 |  |  |
| NOC(CCc1ccccc1)c1ccccc1 (centres unmarked) [compound 1924, O-(1,3-diphenylpropyl)hydroxylamine] |  |  |  | 10 to 100 | < 10 | < 10 |  |  |
| NOCc1c(F)c(F)c(F)c(F)c1F [compound 1667, O-(perfluorobenzyl)hydroxylamine] | 10 to 100 | 10 to 100 | < 10 |  |  |  |  |  |
| NOCc1c(F)cccc1Cl [compound 1674, O-(2-chloro-6-fluorobenzyl)hydroxylamine] |  |  |  | 10 to 100 | 10 to 100 | < 10 |  |  |
| NOCc1cc(Cl)ccc1-c1ccccc1Cl [compound 1915, O-((2′,4-dichlorobiphenyl-2-yl)methyl)hydroxylamine] |  |  |  | 100 to 1000 | < 10 | 10 to 100 |  |  |
| NOC(CC1CCCCC1)c1ccccc1 (centres unmarked) [compound 1925, O-(2-cyclohexyl-1-phenylethyl)hydroxylamine] |  |  |  | 10 to 100 | 10 to 100 | < 10 |  |  |
| NOCc1csc2ccc(Cl)cc12 [compound 1743, O-((5-chlorobenzo[b]thiophen-3-yl)methyl)hydroxylamine] |  |  |  | 10 to 100 | < 10 | < 10 |  |  |
| NOc1cccc2ccccc12 [compound 1903, O-(naphthalen-1-yl)hydroxylamine] |  |  |  | 10 to 100 | < 10 | 10 to 100 |  |  |

Further lines, results first:

| EC50 ([1]; Table 16) [µM] | IC50 [2, 4] [µM] | EC50 [3, 5] [µM] | EC50 ([1]; Table 15) [µM] | IC50 [2, 6] [µM] | EC50 [3, 7] [µM] | IC50 ([2]; hIDO IC50, recombinant human IDO, values reported in ranges) [µM] | EC50 ([3]; 293T cell line stably expressing human IDO, values reported in ranges) [µM] | Structure (SMILES) |
| --- | --- | --- | --- | --- | --- | --- | --- | --- |
| < 10 | < 10 | < 10 |  |  |  |  |  | NOCc1ccc(C(F)(F)F)cc1 [compound 934, O-(4-(trifluoromethyl)benzyl)hydroxylamine] |
| 10 to 100 | 10 to 100 | < 10 |  |  |  |  |  | Cc1cccc(CON)c1 [compound 1692, O-(3-methylbenzyl)hydroxylamine] |
| < 10 | < 10 | < 10 |  |  |  |  |  | NOCc1ccc(F)cc1 [compound 774, O-(4-fluorobenzyl)hydroxylamine] |
|  |  |  | < 10 | 10 to 100 | < 10 |  |  | NOCc1ccncc1 [compound 1737, O-(pyridin-4-ylmethyl)hydroxylamine] |
|  |  |  | 10 to 100 | < 10 | < 10 |  |  | NOCc1cccc(-c2ccc(Cl)cc2)c1 [compound 1878, O-((4′-chlorobiphenyl-3-yl)methyl)hydroxylamine] |
|  |  |  | 10 to 100 | < 10 | < 10 |  |  | NOCc1cccc(-c2ccccc2)c1 [compound 1825, O-(biphenyl-3-ylmethyl)hydroxylamine] |
| < 10 | < 10 | < 10 |  |  |  |  |  | COc1cccc(CON)c1 [compound 1682, O-(3-methoxybenzyl)hydroxylamine] |
|  |  |  | < 10 | < 10 | < 10 |  |  | NOCc1cc2ccccc2o1 [compound 1774, O-(benzofuran-2-ylmethyl)hydroxylamine] |
| 10 to 100 | 10 to 100 | < 10 |  |  |  |  |  | NOCc1ccc([N+](=O)[O-])cc1 [compound 1014, O-(4-nitrobenzyl)hydroxylamine] |
| 10 to 100 | 10 to 100 | < 10 |  |  |  |  |  | COc1ccc(CON)cc1 [compound 1815, O-(4-methoxybenzyl)hydroxylamine] |
|  |  |  | 10 to 100 | 10 to 100 | < 10 |  |  | NOCc1cccc(N)c1 [compound 1824, 3-(aminooxymethyl)aniline] |
| < 10 | < 10 | < 10 |  |  |  | < 20 | < 20 | NOCc1cccc([N+](=O)[O-])c1 [compound 317, O-(3-nitrobenzyl)hydroxylamine] |
| 10 to 100 | < 10 | < 10 |  |  |  |  |  | NOCc1cccc(I)c1 [compound 1816, O-(3-iodobenzyl)hydroxylamine] |
| < 10 | 10 to 100 | 10 to 100 |  |  |  |  |  | NOCc1cccc(CON)c1 [compound 1823, O,O′-(1,3-phenylenebis(methylene))bis(hydroxylamine)] |
| < 10 | < 10 | < 10 |  |  |  |  |  | NOCc1cccc(Br)c1 [compound 1656, O-(3-bromobenzyl)hydroxylamine] |
|  |  |  | 10 to 100 | 10 to 100 | < 10 |  |  | NOCc1ccc2c(c1)OCCO2 [compound 1750, O-((2,3-dihydrobenzo[b][1,4]dioxin-6-yl)methyl)hydroxylamine] |
| 10 to 100 | < 10 | < 10 |  |  |  |  |  | COC(=O)c1ccc(CON)cc1 [compound 1684, methyl 4-(aminooxymethyl)benzoate] |
| 10 to 100 | 10 to 100 | < 10 |  |  |  |  |  | NOCc1ccc(CON)cc1 [compound 1492, O,O′-(1,4-phenylenebis(methylene))bis(hydroxylamine)] |

Source: patent publication US20130289083A1, “IDO Inhibitors” (priority 2007, published 2013)
